# Tests used:
# Experiment in all cases: cells
# Hs-578T = format: functional, cell-based, Homo sapiens; conditions: Homo sapiens, Hs-578T
# Description: SANGER: Inhibition of human Hs-578-T cell growth in a cell viability assay.
# HMV-2 cell line = format: functional, cell-based, Homo sapiens; conditions: Homo sapiens, HMV-2;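 note: growth inhibition of HMV-II cells, read out with a cell viability assay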
# Description: SANGER: Inhibition of human HMV-II cell growth in a cell viability assay.
# HN = format: functional, cell-based, Homo sapiens; conditions: Homo sapiens, HN
# Description: SANGER: Inhibition of human HN cell growth in a cell viability assay.
# P12-Ichikawa = format: functional, cell-based; conditions: Homo sapiens
# MZ1-PC = format: functional, cell-based, Homo sapiens; conditions: Homo sapiens, MZ1-PC;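 note: cell viability assay measuring growth inhibition of human MZ1-PC cells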
# Description: SANGER: Inhibition of human MZ1-PC cell growth in a cell viability assay.
# RCC10RGB = format: functional, cell-based, Homo sapiens; conditions: Homo sapiens, RCC10RGB;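 note: growth inhibition of human RCC10RGB cells, read out by a cell viability assay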
# Description: SANGER: Inhibition of human RCC10RGB cell growth in a cell viability assay.
# Capan-2 = format: functional, cell-based, Homo sapiens; conditions: Homo sapiens, Capan-2;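 note: Capan-2 cell growth inhibition, read out with a viability assay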
# Description: SANGER: Inhibition of human Capan-2 cell growth in a cell viability assay.
# BB65-RCC = format: functional, cell-based, Homo sapiens; conditions: Homo sapiens, BB65-RCC;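 note: growth inhibition of the cell line, measured with a cell viability assay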
# Description: SANGER: Inhibition of human BB65-RCC cell growth in a cell viability assay.
# MDA-MB-157 = format: functional, cell-based, Homo sapiens; conditions: Homo sapiens, MDA-MB-157
# Description: SANGER: Inhibition of human MDA-MB-157 cell growth in a cell viability assay.
# DJM-1 = format: functional, cell-based, Homo sapiens; conditions: Homo sapiens, DJM-1;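 note: growth inhibition of human DJM-1 cells, read out by a cell viability assay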
# Description: SANGER: Inhibition of human DJM-1 cell growth in a cell viability assay.
# ES6 = format: functional, cell-based, Homo sapiens; conditions: Homo sapiens, ES6;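 note: growth inhibition of human ES6 cells, read out with a cell viability assay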
# Description: SANGER: Inhibition of human ES6 cell growth in a cell viability assay.
# MKN-7 = format: functional, cell-based, Homo sapiens; conditions: Homo sapiens, MKN-7;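 note: growth inhibition of MKN-7 cells, read out with a cell viability assay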
# Description: SANGER: Inhibition of human MKN7 cell growth in a cell viability assay.
# NCI-H1651 = format: functional, cell-based, Homo sapiens; conditions: Homo sapiens, NCI-H1651;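 note: Read-out is a cell viability assay, with IC50 expressing inhibition of NCI-H1651 cell growth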
# Description: SANGER: Inhibition of human NCI-H1651 cell growth in a cell viability assay.
# LS-411N = format: functional, cell-based, Homo sapiens; conditions: Homo sapiens, LS-411N
# SK-MEL-30 = format: functional, cell-based; conditions: Homo sapiens;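 note: growth inhibition of SK-MEL-30 cells, determined with a cell viability assay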
# Description: SANGER: Inhibition of human SK-MEL-30 cell growth in a cell viability assay.
# MKN-28 = format: functional, cell-based, Homo sapiens; conditions: Homo sapiens, MKN-28;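 note: cell viability assay read-out, IC50 reflects suppression of growth of human MKN-28 cells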
# Description: SANGER: Inhibition of human MKN28 cell growth in a cell viability assay.
# NCI-H1355 = format: functional, cell-based, Homo sapiens; conditions: Homo sapiens, NCI-H1355;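 note: growth inhibition of human NCI-H1355 cells, read out by a cell viability assay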
# Description: SANGER: Inhibition of human NCI-H1355 cell growth in a cell viability assay.
# SNU-449 = format: functional, cell-based, Homo sapiens; conditions: Homo sapiens, SNU-449
# Description: SANGER: Inhibition of human SNU-449 cell growth in a cell viability assay.
# COR-L105 = format: functional, cell-based, Homo sapiens; conditions: Homo sapiens, COR-L105;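 note: cell growth inhibition determined with a viability assay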
# Description: SANGER: Inhibition of human COR-L105 cell growth in a cell viability assay.
# NCI-H1793 = format: functional, cell-based, Homo sapiens; conditions: Homo sapiens, NCI-H1793;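 note: cell growth inhibition, read out by a cell viability assay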
# Description: SANGER: Inhibition of human NCI-H1793 cell growth in a cell viability assay.
# SW1088 = format: functional, cell-based, Homo sapiens; conditions: Homo sapiens, SW1088;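 note: growth inhibition of human SW1088 cells, read out by a cell viability assay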
# Description: SANGER: Inhibition of human SW1088 cell growth in a cell viability assay.
# BFTC-905 = format: functional, cell-based, Homo sapiens; conditions: Homo sapiens, BFTC-905
# Description: SANGER: Inhibition of human BFTC-905 cell growth in a cell viability assay.
# 647-V = format: functional, cell-based, Homo sapiens; conditions: Homo sapiens, 647-V;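 note: growth inhibition of 647-V cells, read out with a cell viability assay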
# Description: SANGER: Inhibition of human 647-V cell growth in a cell viability assay.
# LAMA-84 = format: functional, cell-based; conditions: Homo sapiens;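 note: growth inhibition of LAMA-84 cells, read out with a cell viability assay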
# Description: SANGER: Inhibition of human LAMA-84 cell growth in a cell viability assay.
# Panc1005 = format: functional, cell-based, Homo sapiens; conditions: Homo sapiens, Panc1005;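 note: growth inhibition of human PANC-10-05 cells, measured by a cell viability assay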
# Description: SANGER: Inhibition of human PANC-10-05 cell growth in a cell viability assay.
# HOS = format: functional, cell-based, Homo sapiens; conditions: Homo sapiens, HOS;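 note: growth inhibition of human HOS cells, read out with a cell viability assay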
# Description: SANGER: Inhibition of human HOS cell growth in a cell viability assay.
# MEG-01 = format: functional, cell-based; conditions: Homo sapiens;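 note: growth inhibition of MEG-01 cells, read out by a cell viability assay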
# Description: SANGER: Inhibition of human MEG-01 cell growth in a cell viability assay.
# SF-268 = format: functional, cell-based, Homo sapiens; conditions: Homo sapiens, SF-268;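 note: growth inhibition of SF-268 cells determined with a cell viability assay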
# Description: SANGER: Inhibition of human SF268 cell growth in a cell viability assay.
# OMC-1 = format: functional, cell-based, Homo sapiens; conditions: Homo sapiens, OMC-1;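 note: growth inhibition of the OMC-1 cell line, measured by a cell viability assay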
# Description: SANGER: Inhibition of human OMC-1 cell growth in a cell viability assay.
# VM-CUB-1 = format: functional, cell-based; conditions: Homo sapiens;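 note: cell viability assay measuring growth inhibition of the human VM-CUB-1 cell line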
# Description: SANGER: Inhibition of human VM-CUB-1 cell growth in a cell viability assay.
# MSTO-211H = format: functional, cell-based, Homo sapiens; conditions: Homo sapiens, MSTO-211H
# Description: SANGER: Inhibition of human MSTO-211H cell growth in a cell viability assay.
# CCRF-CEM = format: functional, cell-based; conditions: Homo sapiens;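 note: inhibition of CCRF-CEM cell growth, measured by a cell viability assay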
# Description: SANGER: Inhibition of human CCRF-CEM cell growth in a cell viability assay.
# D-542MG = format: functional, cell-based, Homo sapiens; conditions: Homo sapiens, D-542MG
# Description: SANGER: Inhibition of human D-542MG cell growth in a cell viability assay.
# DMS-273 = format: functional, cell-based, Homo sapiens; conditions: Homo sapiens, DMS-273
# Description: SANGER: Inhibition of human DMS-273 cell growth in a cell viability assay.
# KP-N-YS = format: functional, cell-based; conditions: Homo sapiens;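 note: cell viability assay measuring inhibition of cell line growth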
# Description: SANGER: Inhibition of human KP-N-YS cell growth in a cell viability assay.
# CHP-212 = format: functional, cell-based, Homo sapiens; conditions: Homo sapiens, CHP-212
# Description: SANGER: Inhibition of human CHP-212 cell growth in a cell viability assay.
# HCC1937 = format: functional, cell-based, Homo sapiens; conditions: Homo sapiens, HCC1937;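 note: growth inhibition measured with a cell viability read-out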
# Description: SANGER: Inhibition of human HCC1937 cell growth in a cell viability assay.
# MeWo = format: functional, cell-based, Homo sapiens; conditions: Homo sapiens, MeWo;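 note: growth inhibition of MeWo cells, determined by a cell viability readout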
# Description: SANGER: Inhibition of human Mewo cell growth in a cell viability assay.
# KYSE-180 = format: functional, cell-based, Homo sapiens; conditions: Homo sapiens, KYSE-180;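 note: growth inhibition of KYSE-180 cells, read out with a cell viability assay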
# Description: SANGER: Inhibition of human KYSE-180 cell growth in a cell viability assay.
# HEL = format: functional, cell-based, Homo sapiens; conditions: Homo sapiens, HEL;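 note: growth inhibition of HEL cells, read out with a cell viability assay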
# Description: SANGER: Inhibition of human HEL cell growth in a cell viability assay.
# A2058 = format: functional, cell-based; conditions: Homo sapiens;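 note: reduction of A2058 cell growth, read out with a viability assay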
# Description: SANGER: Inhibition of human A2058 cell growth in a cell viability assay.
# HCC70 = format: functional, cell-based, Homo sapiens; conditions: Homo sapiens, HCC70;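 note: cell viability assay measuring how strongly the compound suppresses proliferation of HCC70 cells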
# Description: SANGER: Inhibition of human HCC70 cell growth in a cell viability assay.
# NCI-H2122 = format: functional, cell-based, Homo sapiens; conditions: Homo sapiens, NCI-H2122;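 note: growth inhibition of the cells, read out with a cell viability assay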
# Description: SANGER: Inhibition of human NCI-H2122 cell growth in a cell viability assay.
# A-427 = format: functional, cell-based, Homo sapiens; conditions: Homo sapiens, A-427;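 note: growth inhibition of human A-427 cells, read out by a cell viability assay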
# Description: SANGER: Inhibition of human A427 cell growth in a cell viability assay.
# UACC-257 = format: functional, cell-based, Homo sapiens; conditions: Homo sapiens, UACC-257
# Description: SANGER: Inhibition of human UACC-257 cell growth in a cell viability assay.
# SK-MES-1 = format: functional, cell-based, Homo sapiens; conditions: Homo sapiens, SK-MES-1;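 note: growth inhibition of human SK-MES-1 cells, read out with a cell viability assay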
# Description: SANGER: Inhibition of human SK-MES-1 cell growth in a cell viability assay.
# NCI-H1299 = format: functional, cell-based, Homo sapiens; conditions: Homo sapiens, NCI-H1299;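 note: growth inhibition of human NCI-H1299 cells, read out by a cell viability assay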
# Description: SANGER: Inhibition of human NCI-H1299 cell growth in a cell viability assay.
# YAPC = format: functional, cell-based, Homo sapiens; conditions: Homo sapiens, YAPC;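 note: growth inhibition of YAPC cells, measured with a cell viability assay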
# Description: SANGER: Inhibition of human YAPC cell growth in a cell viability assay.
# SK-LMS-1 = format: functional, cell-based, Homo sapiens; conditions: Homo sapiens, SK-LMS-1;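 note: growth inhibition of human SK-LMS-1 cells, read out with a cell viability assay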
# Description: SANGER: Inhibition of human SK-LMS-1 cell growth in a cell viability assay.
# EC-GI-10 = format: functional, cell-based, Homo sapiens; conditions: Homo sapiens, EC-GI-10
# Description: SANGER: Inhibition of human EC-GI-10 cell growth in a cell viability assay.
smiles,measurement,setting,value
O=c1cc(-c2cccc3c2Sc2ccccc2S3)oc(N2CCOCC2)c1 [KU-55933],IC50,Hs-578T,> 10 µM
same,IC50,HMV-2 cell line,> 10 µM
same,IC50,HN,> 10 µM
same,IC50,P12-Ichikawa,> 10 µM
same,IC50,MZ1-PC,> 10 µM
same,IC50,RCC10RGB,> 10 µM
same,IC50,Capan-2,> 10 µM
same,IC50,BB65-RCC,> 10 µM
same,IC50,MDA-MB-157,> 10 µM
same,IC50,DJM-1,> 10 µM
same,IC50,ES6,> 10 µM
same,IC50,MKN-7,> 10 µM
same,IC50,NCI-H1651,> 10 µM
same,IC50,LS-411N,> 10 µM
same,IC50,SK-MEL-30,> 10 µM
same,IC50,MKN-28,> 10 µM
same,IC50,NCI-H1355,> 10 µM
same,IC50,SNU-449,> 10 µM
same,IC50,COR-L105,> 10 µM
same,IC50,NCI-H1793,> 10 µM
same,IC50,SW1088,> 10 µM
same,IC50,BFTC-905,> 10 µM
same,IC50,647-V,> 10 µM
same,IC50,LAMA-84,4.58 µM
same,IC50,Panc1005,> 10 µM
same,IC50,HOS,> 10 µM
same,IC50,MEG-01,> 10 µM
same,IC50,SF-268,> 10 µM
same,IC50,OMC-1,> 10 µM
same,IC50,VM-CUB-1,> 10 µM
same,IC50,MSTO-211H,> 10 µM
same,IC50,CCRF-CEM,> 10 µM
same,IC50,D-542MG,> 10 µM
same,IC50,DMS-273,> 10 µM
same,IC50,KP-N-YS,> 10 µM
same,IC50,CHP-212,> 10 µM
same,IC50,HCC1937,> 10 µM
same,IC50,MeWo,> 10 µM
same,IC50,KYSE-180,> 10 µM
same,IC50,HEL,> 10 µM
same,IC50,A2058,> 10 µM
same,IC50,HCC70,> 10 µM
same,IC50,NCI-H2122,> 10 µM
same,IC50,A-427,> 10 µM
same,IC50,UACC-257,> 10 µM
same,IC50,SK-MES-1,> 10 µM
same,IC50,NCI-H1299,> 10 µM
same,IC50,YAPC,> 10 µM
same,IC50,SK-LMS-1,> 10 µM
O=C(c1cc(Cc2n[nH]c(=O)c3ccccc23)ccc1F)N1CCN(C(=O)C2CC2)CC1 [OLAPARIB],IC50,Hs-578T,> 5 µM
same,IC50,HMV-2 cell line,> 5 µM
same,IC50,HN,> 5 µM
same,IC50,P12-Ichikawa,> 5 µM
same,IC50,MZ1-PC,> 5 µM
same,IC50,RCC10RGB,> 5 µM
same,IC50,Capan-2,> 5 µM
same,IC50,EC-GI-10,> 5 µM
same,IC50,BB65-RCC,> 5 µM
same,IC50,MDA-MB-157,> 5 µM
same,IC50,DJM-1,> 5 µM
same,IC50,ES6,> 5 µM
same,IC50,MKN-7,> 5 µM
same,IC50,NCI-H1651,> 5 µM
same,IC50,LS-411N,> 5 µM
same,IC50,SK-MEL-30,> 5 µM
same,IC50,MKN-28,> 5 µM
same,IC50,NCI-H1355,> 5 µM
same,IC50,SNU-449,> 5 µM
same,IC50,COR-L105,> 5 µM
same,IC50,NCI-H1793,> 5 µM
same,IC50,SW1088,> 5 µM
same,IC50,BFTC-905,> 5 µM
same,IC50,647-V,> 5 µM
same,IC50,LAMA-84,> 5 µM
same,IC50,Panc1005,> 5 µM
same,IC50,HOS,> 5 µM
same,IC50,MEG-01,> 5 µM
same,IC50,SF-268,> 5 µM
same,IC50,OMC-1,> 5 µM
same,IC50,VM-CUB-1,> 5 µM
same,IC50,MSTO-211H,> 5 µM
same,IC50,CCRF-CEM,> 5 µM
same,IC50,DMS-273,> 5 µM
same,IC50,KP-N-YS,> 5 µM
same,IC50,CHP-212,> 5 µM
same,IC50,HCC1937,> 5 µM
same,IC50,MeWo,> 5 µM
same,IC50,KYSE-180,> 5 µM
same,IC50,HEL,> 5 µM
same,IC50,A2058,> 5 µM
same,IC50,HCC70,> 5 µM
same,IC50,NCI-H2122,> 5 µM
same,IC50,A-427,> 5 µM
same,IC50,UACC-257,> 5 µM
same,IC50,SK-MES-1,> 5 µM
same,IC50,NCI-H1299,> 5 µM
same,IC50,YAPC,> 5 µM
C=CCNC1=C2C[C@@H](C)C[C@H](OC)[C@H](O)[C@@H](C)/C=C(\C)[C@H](OC(N)=O)[C@@H](OC)/C=C\C=C(/C)C(=O)NC(=CC1=O)C2=O [TANESPIMYCIN],IC50,Hs-578T,0.0721 µM
same,IC50,HMV-2 cell line,0.12 µM
same,IC50,HN,0.0427 µM
same,IC50,P12-Ichikawa,> 1 µM
same,IC50,MZ1-PC,> 1 µM
same,IC50,RCC10RGB,> 1 µM
same,IC50,Capan-2,0.193 µM
same,IC50,BB65-RCC,0.106 µM
same,IC50,MDA-MB-157,0.181 µM
same,IC50,DJM-1,> 1 µM
same,IC50,ES6,> 1 µM
same,IC50,MKN-7,> 1 µM
same,IC50,NCI-H1651,0.7 µM
same,IC50,LS-411N,0.465 µM
same,IC50,SK-MEL-30,0.912 µM
same,IC50,MKN-28,0.666 µM
same,IC50,NCI-H1355,0.281 µM
same,IC50,SNU-449,> 1 µM
same,IC50,COR-L105,> 1 µM
same,IC50,NCI-H1793,0.385 µM
same,IC50,SW1088,0.164 µM
same,IC50,BFTC-905,0.315 µM
same,IC50,647-V,> 1 µM
same,IC50,LAMA-84,> 1 µM
same,IC50,Panc1005,0.412 µM
same,IC50,HOS,0.417 µM
same,IC50,MEG-01,> 1 µM
same,IC50,SF-268,0.643 µM
same,IC50,OMC-1,0.118 µM
same,IC50,VM-CUB-1,0.0366 µM
same,IC50,MSTO-211H,0.558 µM
same,IC50,CCRF-CEM,> 1 µM
same,IC50,D-542MG,> 1 µM
same,IC50,DMS-273,0.339 µM
same,IC50,KP-N-YS,0.375 µM
same,IC50,CHP-212,0.0263 µM
same,IC50,HCC1937,0.163 µM
same,IC50,MeWo,0.149 µM
same,IC50,KYSE-180,0.0926 µM
same,IC50,HEL,> 1 µM
same,IC50,A2058,0.0723 µM
same,IC50,HCC70,0.921 µM
same,IC50,NCI-H2122,0.0974 µM
same,IC50,A-427,0.42 µM
same,IC50,UACC-257,0.822 µM
same,IC50,SK-MES-1,0.0361 µM
same,IC50,NCI-H1299,0.163 µM
same,IC50,YAPC,0.451 µM
same,IC50,SK-LMS-1,> 1 µM

# Reference: ChEMBL document CHEMBL1201861, “Genomics of Drug Sensitity in Cancer screening data, Wellcome Trust Sanger Institute”
